Some test systems named below: ACHN renal; CCRF-CEM leukemia; TK-10 renal; OVCAR-8 ovarian; EKVX NSCLC; HOP-92 NSCLC; NCI-H23 lung; NCI-H226 lung; UACC-62 melanoma; HCC-2998 colon.
What all share (experiment): growth of human tumour cells (NCI), 48 h

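The compound was tested at five concentrations on cells cultured in 96-well plates, with a 48-hour exposure period. At the GI50, growth is halved. The concentration for full growth arrest is given as TGI.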

Turning to `CC(C)Oc1ccc(C(=O)Cn2ccnc2)cc1-n1c(CN2CCN(C(=O)COc3ccc(Cl)cc3)CC2)nc2ccccc2c1=O`, the GI50 with ACHN renal is 1.61 µM; in the assay with CCRF-CEM leukemia, 11 µM; in the assay with TK-10 renal it was 12.8 µM; in the assay on OVCAR-8 ovarian, 15.5 µM; with EKVX NSCLC, 16.5 µM; with HOP-92 NSCLC it was 13.1 µM. Besides, the GI50 in the assay on NCI-H23 lung is 16.2 µM; in the assay with NCI-H226 lung, 14.5 µM; with UACC-62 melanoma it was 12.8 µM; in the assay on HCC-2998 colon it was 15.7 µM. For the same compound, the TGI was 3.14 µM with ACHN renal; over 100 µM in the assay on CCRF-CEM leukemia; over 74.4 µM in the assay on TK-10 renal; 53.2 µM with OVCAR-8 ovarian; 97 µM in the assay with EKVX NSCLC; 35 µM with HOP-92 NSCLC. Moreover, the TGI in the assay on NCI-H23 lung was found to be 37.7 µM; in the assay on NCI-H226 lung it was 38.9 µM; in the assay with UACC-62 melanoma it was 28.9 µM; in the assay with HCC-2998 colon, 31 µM.

In the case of `COc1ccc2[nH]c(-c3ccc(O)cc3)cc(=O)c2c1`, the TGI in the assay with ACHN renal is over 100 µM; in the assay on CCRF-CEM leukemia it was 21.9 µM; in the assay on TK-10 renal it was over 89.7 µM; in the assay with OVCAR-8 ovarian, 13.1 µM; in the assay on EKVX NSCLC, over 31.2 µM; in the assay on HOP-92 NSCLC it was 43.9 µM. For the same compound, the TGI in the assay on NCI-H23 lung was found to be 6.38 µM; in the assay on NCI-H226 lung, 4.81 µM; in the assay on UACC-62 melanoma, 38.9 µM; with HCC-2998 colon it was 3.4 µM.

On to `COc1ccc(C2=C(N3CCc4ccccc43)C(=O)NC2=O)cc1`, for which the GI50 with ACHN renal was over 25 µM; with CCRF-CEM leukemia, 2.73 µM; in the assay with TK-10 renal, over 24.2 µM; in the assay with OVCAR-8 ovarian it was over 25 µM; with EKVX NSCLC, over 24 µM; with HOP-92 NSCLC, 0.642 µM. For the same compound, the GI50 with NCI-H23 lung is over 25 µM; in the assay with NCI-H226 lung, over 25 µM; with UACC-62 melanoma, over 19.9 µM; with HCC-2998 colon, over 25 µM. The TGI is over 25 µM in the assay with ACHN renal; over 11.7 µM in the assay with CCRF-CEM leukemia; over 25 µM in the assay on TK-10 renal; over 25 µM in the assay with OVCAR-8 ovarian; over 25 µM in the assay with EKVX NSCLC; 19.7 µM with HOP-92 NSCLC. Besides, the TGI in the assay on NCI-H23 lung, in the assay with NCI-H226 lung, in the assay with UACC-62 melanoma and in the assay on HCC-2998 colon was over 25 µM each time.

Regarding `c1cnn2ncc(-c3ccnc(Nc4ccc5c(c4)OCCO5)n3)c2c1`, the GI50 is 0.0549 µM with ACHN renal; 0.0879 µM in the assay on CCRF-CEM leukemia; 0.0685 µM with TK-10 renal; 0.0687 µM in the assay on OVCAR-8 ovarian; 0.0997 µM in the assay on EKVX NSCLC; 0.0593 µM in the assay on HOP-92 NSCLC. Further, the GI50 in the assay on NCI-H23 lung is 0.0692 µM; with UACC-62 melanoma it was 0.0475 µM; in the assay with HCC-2998 colon it was 0.0911 µM. Further, the TGI in the assay with ACHN renal was over 25 µM; in the assay with CCRF-CEM leukemia, over 25 µM; in the assay with TK-10 renal, 0.224 µM; with OVCAR-8 ovarian, over 25 µM; in the assay with EKVX NSCLC it was 1.13 µM; with HOP-92 NSCLC, 0.162 µM. Also, the TGI was determined as 0.286 µM in the assay on NCI-H23 lung, 0.113 µM with UACC-62 melanoma and 0.514 µM with HCC-2998 colon.

`CCN(CC)c1ccc(/C=C/C2=[N+](C)c3ccccc3C2(C)C)c(C)c1`: the GI50 is 0.0773 µM in the assay on ACHN renal; 0.0271 µM in the assay with CCRF-CEM leukemia; 0.0779 µM with TK-10 renal; 0.0629 µM in the assay with OVCAR-8 ovarian; 0.0466 µM in the assay on EKVX NSCLC; 0.0217 µM in the assay with HOP-92 NSCLC. Further, the GI50 in the assay on NCI-H23 lung was under 0.0244 µM; with NCI-H226 lung, 0.0444 µM; in the assay on UACC-62 melanoma, 0.0998 µM; in the assay on HCC-2998 colon it was 0.102 µM. In addition, the TGI is 3.97 µM with ACHN renal; 4.68 µM in the assay on CCRF-CEM leukemia; 5.3 µM with TK-10 renal; 3.12 µM in the assay on OVCAR-8 ovarian; 7.86 µM in the assay with EKVX NSCLC; 0.148 µM with HOP-92 NSCLC. Moreover, the TGI in the assay with NCI-H23 lung came out at 10.5 µM; in the assay with NCI-H226 lung it was 1.69 µM; in the assay on UACC-62 melanoma, 2.14 µM; with HCC-2998 colon, 5.27 µM.

As to `Cc1cc(C)n(C2=NS(=O)(=O)c3ccccc3N2C)n1`, the TGI with ACHN renal, with CCRF-CEM leukemia, in the assay on TK-10 renal, in the assay with OVCAR-8 ovarian, with EKVX NSCLC and in the assay with HOP-92 NSCLC was over 100 µM each time. Moreover, the TGI with NCI-H23 lung, in the assay on NCI-H226 lung, with UACC-62 melanoma and with HCC-2998 colon was over 100 µM throughout.

As to `Cc1cccc(C)c1N1C(=O)C(=O)C(c2nc3ccccc3s2)C(=Nc2cccc3c(=O)[nH][nH]c(=O)c23)C1=O` (stereo unspecified), the TGI in the assay with ACHN renal, in the assay with CCRF-CEM leukemia, in the assay on TK-10 renal, with OVCAR-8 ovarian, with EKVX NSCLC and in the assay with HOP-92 NSCLC was over 100 µM each time. Moreover, the TGI with NCI-H23 lung, in the assay on NCI-H226 lung, with UACC-62 melanoma and in the assay on HCC-2998 colon was over 100 µM throughout.

With `O=C(NCCN1CCNCC1)c1ccc(Nc2nc3ccccc3c3occc23)cc1`, the GI50 with ACHN renal was 20.1 µM; with CCRF-CEM leukemia, 10.3 µM; in the assay on TK-10 renal, 18.3 µM; in the assay on OVCAR-8 ovarian, 23.2 µM; in the assay with EKVX NSCLC it was 9.45 µM; with HOP-92 NSCLC, 1.24 µM. Also, the GI50 with NCI-H23 lung is 12.6 µM; in the assay on UACC-62 melanoma, 17.6 µM; in the assay on HCC-2998 colon it was 1.79 µM. The TGI is 36 µM in the assay on ACHN renal; 28.5 µM in the assay on CCRF-CEM leukemia; 35.2 µM in the assay on TK-10 renal; 75.7 µM with OVCAR-8 ovarian; 27.2 µM in the assay on EKVX NSCLC; 15.8 µM in the assay on HOP-92 NSCLC. In addition, the values for the TGI with NCI-H23 lung, in the assay with UACC-62 melanoma and in the assay with HCC-2998 colon were 27.6 µM, 32 µM and 3.9 µM, respectively.

For the compound `Cc1cccc(N=Nc2ccc(N=Nc3c(O)ccc4ccccc34)cc2C)c1`, the TGI is over 100 µM with ACHN renal; over 100 µM in the assay with CCRF-CEM leukemia; over 100 µM in the assay on TK-10 renal; 60.3 µM with OVCAR-8 ovarian; over 100 µM in the assay on EKVX NSCLC; over 100 µM in the assay on HOP-92 NSCLC. Also, the TGI in the assay on NCI-H23 lung, in the assay with NCI-H226 lung, in the assay on UACC-62 melanoma and with HCC-2998 colon was over 100 µM in each case.

Values taken from PubChem BioAssay (NCI).
